The text below walks through data of patent US11453667B2, “Pyridone-pyrimidine derivative acting as KRASG12C mutein inhibitor” (MEDSHINE DISCOVERY INC., priority 2018, dated 2022).

For data set [1] the following is noted: reported in Cell, 2018, 172, 578-589; cited from earlier work.
Data set [2] deals with human non-small cell lung cancer NCI-H358. The data set can be described thus: In vivo drug efficacy test (4): subcutaneous xenograft tumor model. On the set-up: species or system BALB/c nude mice. Conditions: 15 mg/kg. The protocol: (§1) To evaluate the in vivo efficacy of the test compounds in a subcutaneous xenograft tumor model of human non-small cell lung cancer NCI-H358.
BALB/c nude mice, female, 6-8 weeks old, weighing 18-20 grams. A total of 40 were required. They were provided by Shanghai Lingchang Experimental Animal Co., Ltd ( ? ? ). NCI-H358 tumor cells were resuspended in PBS to prepare a cell suspension with a density of 5×10^7/mL, which was inoculated subcutaneously on the right back of each mouse (0.1 mL, 5×10^6/mouse) to wait for tumor growth. When the average tumor volume reached about 166 mm^3, randomized grouping and administration were performed, and the administration dose was shown in Table 8. The diameter of the tumor was measured with vernier calipers twice a week.
The formula for calculating the tumor volume is: V=0.5a×b^2, wherein a and b represent the long and short diameters of the tumor, respectively. The tumor suppressive effect of the compounds was evaluated by TGI (%). TGI (%) reflects the tumor growth inhibition rate. Calculation of TGI (%): TGI (%)=[(1−(average tumor volume at the end of administration in a treatment group−average tumor volume at the beginning of administration in the treatment group))/(average tumor volume at the end of treatment in the solvent control group−average tumor volume at the beginning of treatment in the solvent control group)]×100%.

For data set [3], the system named is human pancreatic cancer x-MIA-PaCa2 cell. The data set can be described thus: In vivo drug efficacy test (3): subcutaneous xenograft tumor model. On the set-up: species or system NU/NU mice. To be noted: 50 mg/kg. The method, then: To evaluate the in vivo efficacy of the test compounds in a subcutaneous xenograft tumor model of human pancreatic cancer x-MIA-PaCa2 cell.
NU/NU mice, female, 6-8 weeks old, weighing 17-20 grams. A total of 100 were required (additional 30% of animals were inoculated). They were provided by Beijing Vital River Science and Technology Co., Ltd. Each mouse was subcutaneously inoculated with 0.2 mL (10×10^6) of x-MIA-PaCa2 cells (plus matrigel, with the volume ratio being 1:1) on the right back. When the average tumor volume reached about 150 mm^3, grouping and administration were performed, and the administration dose was shown in Table 7. The diameter of the tumor was measured with vernier calipers twice a week. The formula for calculating the tumor volume is: V=0.5a×b^2, wherein a and b represent the long and short diameters of the tumor, respectively. The tumor suppressive effect of the compounds was evaluated by TGI (%). TGI (%) reflects the tumor growth inhibition rate. Calculation of TGI (%): TGI (%)=[(1−(average tumor volume at the end of administration in a treatment group−average tumor volume at the beginning of administration in the treatment group))/(average tumor volume at the end of treatment in the solvent control group−average tumor volume at the beginning of treatment in the solvent control group)]×100%.

Data set [4] deals with pancreatic cancer MIA-Paca2 cell. To be noted: reported in Cell, 2018, 172, 578-589; cited from earlier work.
Data set [5] is described as follows: Rat pharmacokinetic evaluation experiment. The format is in vivo. Conditions: plasma, male SD rats; for AUC: read-out: AUC (exposure). From the text:
To determine the drug concentrations in plasma at different times after intravenous and intragastric administration of the test compounds to the rats by using the LC/MS/MS method and using male SD rats as the test animals; To study the pharmacokinetic behaviors of the test compounds in rats and to evaluate the pharmacokinetic characteristics thereof.
Experiment scheme: 10 healthy adult male SD rats were used as experimental animals and divided into 4 groups according to the principle of similar body weight, with 2 in each group of the group IV (two groups) and 3 in each group of the group PO (two groups). The animals were purchased from Beijing Vital River Laboratory Animal Technology Co., Ltd.
Group IV: an appropriate amount of samples were weighed; an appropriate amount of DMSO, PEG400 and water were added successively thereto according to the volume ratio of 10:60:30; and stirring was performed under sonication to reach a clear state of 1.5 mg/mL.
Group PO: an appropriate amount of samples were weighed; an appropriate amount of DMSO, PEG400 and water were added successively thereto according to the volume ratio of 10:60:30; and stirring was performed under sonication to reach a clear state of 1.0 mg/mL.
After fasting overnight, each rat in the group IV was administered intravenously with a volume of 2 mL/kg and a dose of 3 mg/kg; each rat in the group PO was administered intragastrically with a volume of 10 mL/kg and a dose of 10 mg/kg.
After each of the male SD rats in the group IV was administrated with the test compounds, 200 ul of blood samples were collected at 0.0833, 0.25, 0.5, 1, 2, 4, 6, 8 and 24 hours, and were placed in a commercial anticoagulation tube pre-loaded with EDTA-K2. After each rat in the group PO was administrated with the test compounds, 200 ul of blood samples were collected at 0.25, 0.5, 1, 2, 4, 6, 8 and 24 hours respectively, and were placed in a commercial anticoagulation tube pre-loaded with EDTA-K2. The test tube was centrifuged for 15 minutes to separate the plasma and stored at −60° C. 2 hours after administration, the animals can be fed. The content of the test compounds in plasma was determined by the LC/MS/MS method after intravenous and intragastric administration to the rats. The linear range of the method was from 2.00 to 6000 nM; plasma samples were analyzed after treatment of precipitating proteins by acetonitrile.
Note: Cl: clearance rate; Vd: volume of distribution; AUC: exposure; T1/2: half-life; Cmax: maximum compound concentration after oral administration; Tmax: time to reach Cmax; F: bioavailability.

The subject of data set [6] is human non-small cell lung cancer NCI-H358. Kind of data set: In vivo drug efficacy test (2): subcutaneous xenograft tumor model. Conditions: 100 mg/kg (0-6 days) + 50 mg/kg (7-20 days). On the set-up: species or system BALB/c nude mice. The protocol: as §1
BALB/c nude mice, female, 6-8 weeks old, weighing 18-21 grams. A total of 100 were required. They were provided by Shanghai Lingchang Experimental Animal Co., Ltd ( ? ? ). NCI-H358 tumor cells were resuspended in PBS to prepare 0.1 mL (5×10^6) of cell suspension, which was inoculated subcutaneously on the right back of each mouse (5×10^6/mouse) to wait for tumor growth. When the average tumor volume reached about 150-200 mm^3, randomized grouping and administration were performed, and the administration dose was shown in Table 6. The diameter of the tumor was measured with vernier calipers twice a week. The formula for calculating the tumor volume is: V=0.5a×b^2, wherein a and b represent the long and short diameters of the tumor, respectively. The tumor suppressive effect of the compounds was evaluated by TGI (%). TGI (%) reflects the tumor growth inhibition rate. Calculation of TGI (%): TGI (%)=[(1−(average tumor volume at the end of administration in a treatment group−average tumor volume at the beginning of administration in the treatment group))/(average tumor volume at the end of treatment in the solvent control group−average tumor volume at the beginning of treatment in the solvent control group)]×100%.

Data set [7] deals with KRAS G12C mutation. Conditions: reported in Cell, 2018, 172, 578-589; cited from earlier work.

The structures appear in SMILES notation. Like-named read-outs stand apart in the source and are kept apart here.

In the case of `C=CC(=O)N1CCN(c2ncnc3c(F)c(-c4c(O)cccc4F)c(Cl)cc23)CC1` [ARS-1620, reference compound], the metabolic stability result in data set [1] is given as “good metabolic stability”. Moreover, in data set [2], the “Tumor volume (day 27)” value stood at 492 mm^3. In addition, the TGI stood at 51.78% in data set [2] (day 27), 50.36% in data set [3] (day 14) and 90.82% in data set [6] (day 20). Moreover, in data set [3], the “Tumor volume (day 14)” value turned out to be 907 mm^3. The “tumor growth in subcutaneous xenograft tumor model” value in data set [4] was “effectively inhibit tumor growth”. Moreover, the AUC in data set [5] (IV 3 mg/kg) amounted to 3.21 µM·h; in data set [5] (PO 10 mg/kg), 2.32 µM·h. Besides, the clearance in data set [5] (IV 3 mg/kg, read-out: Cl (clearance rate)) was determined as 36.3 mL/min/kg. Further, the half-life in data set [5] (IV 3 mg/kg, read-out: T1/2 (half-life) (converted)) was 27.7 min. Further, the Vd in data set [5] (IV 3 mg/kg, read-out: Vd (volume of distribution)) came out at 1.08 L/kg. For the same compound, the peak level in data set [5] (PO 10 mg/kg) (Cmax) was 1240 nM. In addition, the Tmax in data set [5] (PO 10 mg/kg) came to 20 min. In addition, in data set [5] (PO 10 mg/kg, read-out: F (bioavailability)), the bioavailability was 22%. The “Tumor volume (day 20)” value in data set [6] turned out to be 216 mm^3. For the same compound, the “cellular anti-proliferative activity at the cellular level” value in data set [7] is listed as “nM-level”.
